In brackets after ≈: the same amount, converted by molar mass.
Columns and labels:
M. luteus [1] = test: Biofilm inhibition assay (crystal violet); type: cell-based, Micrococcus luteus
Experimental: (§1) In a 96-well plate, biofilm grown cultures of M. hydrocarbonoclasticus and C. marina were incubated with napyradiomycins (1–12) at a concentration of 31.25 µg/mL. After discarding the media, biofilm inhibition was determined from OD600 measurements of crystal violet stained cells resuspended from the plate bottom with acetic acid.
(§2) Five marine bacterial species were used as models to assess antimicrofouling activity. The biofilm-forming marine bacteria Marinobacter hydrocarbonoclasticus DSM 8798 (ATCC 49840), Cobetia marina DSM 4741, Phaeobacter inhibens DSM 17,395, and Pseusooceanicola batsensis DSM 15,984 were obtained from DSMZ (Leibniz Institute DSMZ—German collection of Microorganisms and Cell Cultures) and Micrococcus luteus. Cultures were routinely grown in liquid marine broth (Carl Roth GmbH, Karlsruhe, Germany) with agitation (180 rpm) or on agar-supplemented marine broth, at 28 °C (M. hydrocarbonoclasticus and C. marina) or 30 °C (P. inhibens and P. batsensis). M. luteus was maintained in Brain Heart Infusion broth (BHI, Becton Dickinson, GmbH, Heidelberg, Germany) with agitation (180 rpm) or on agar-supplemented BHI, at 37 °C.
(§3) The antibiofilm activity of napyradiomycins (1–12) against the five marine bacterial species was assessed in 96-well polystyrene flat bottom microplates (Nunclon Delta Surface, Thermo Scientific, Roskilde, Denmark) as previously reported. For initial screening, bacterial overnight cultures were diluted to an optical density (OD600nm) value of 0.2 and incubated statically at 28 °C (M. hydrocarbonoclasticus, C. marina), 30 °C (P. inhibens, P. batsensis) or 37 °C (M. luteus) in the 96-well microplate in the presence or absence of 31.25 µg/mL of napyradiomycins, solubilized in DMSO. After 24 h (M. hydrocarbonoclasticus, C. marina) or 48 h (P. batsensis, P. inhibens, M. luteus) incubation, the OD600nm was determined. The planktonic cells and media were discarded, and the wells were washed twice with deionized water. The biofilm was fixed for 1 h at 60 °C and stained with crystal violet 0.06% for 10 min. The dye was discarded, and the wells were again washed twice with deionized water. The stained biofilm was solubilized with 30% acetic acid and the OD600nm was determined. […] The percentage of biofilm inhibition was calculated as the amount of biofilm relative to that of the bacterial species without added compounds (with the same amount of DMSO added). CuSO4 (5 μM), a potent antifouling agent used in antifouling paints, was used as reference.
(§4) All assays were performed in triplicate, and results are representative of the average and standard error of the mean (SEM). Statistical analysis was performed in GraphPad Prism 8.0.2, using one-way ANOVA followed by a Dunnett’s multiple comparisons test against the control (species grown with the same amount of DMSO added).

M. hydrocarbonoclasticus = test: Biofilm inhibition assay (crystal violet); type: cell-based, Marinobacter hydrocarbonoclasticus; settings: 31.25 µg/mL
Experimental: as §1, §2, §3, §4

M. luteus [2] = test: Bacterial growth inhibition assay (OD600nm); type: cell-based, Micrococcus luteus
From the text: as §2
The antibacterial activity of the napyradiomycins (1–12) was assessed in 96-well polystyrene flat bottom microplates (Nunclon Delta Surface, Thermo Scientific, Roskilde, Denmark) following previously reported procedures. […] After 24 h (M. hydrocarbonoclasticus, C. marina) or 48 h (P. batsensis, P. inhibens, M. luteus) incubation, the OD600nm was determined (Molecular Devices, Spectra Max 190). […] The percentage of growth inhibition was calculated as the amount of growth relative to that of the bacterial species without added compounds (with the same amount of DMSO added). CuSO4 (5 μM), a potent antifouling agent used in antifouling paints, was used as reference.
as §4, with “8.0.2 (San Diego, CA, USA),” for “8.0.2,”

C. marina = test: Biofilm inhibition assay (crystal violet); type: cell-based, Cobetia marina; settings: 31.25 µg/mL
Experimental: as §1, §2, §3, §4

[3] = Mussel plantigrade larvae settlement, 15 h acute exposure assay; type: in vivo; settings: Mytilus galloprovincialis (mussel, plantigrade larvae), in vivo, no mortality at highest tested concentration 12 µg/mL
Experimental: (§5) Mussel (M. galloprovincialis) adhesive larvae (plantigrades) were used to assess in vivo the antifouling activity of napyradiomycins (1–12) towards macrofouling. Juvenile mussel aggregates were collected at the intertidal rocky shore during low spring tides, at Memória beach, Matosinhos, Portugal (41°13′59″ N; 8°43′28″ W). At the laboratory, immediately before the bioassays, mussel plantigrade larvae were screened and isolated from the juvenile aggregates using a binocular microscope (Olympus SZX2-ILLT, Hamburg, Germany) and washed with filtered seawater to remove organic debris. Only competent plantigrade larvae (those showing foot exploratory behavior) were selected and used in the exposure bioassays following previously validated procedures. Plantigrades were exposed in 24-well polystyrene plates for 15 h in the darkness at 18 °C. DMSO was used as solvent for crude extracts, fractions and pure compounds stock and working solutions. Working solutions were prepared by successive dilutions of stock solutions in DMSO and then diluted in filtered seawater to obtain the test solutions. DMSO concentration in test solutions was always 0.1%. Four well replicates were used per condition with five larvae per well. Two negative controls, one with ultra-pure water and the other with DMSO 0.1% were included in all bioassays, as well as a positive control with 5 μM CuSO4 (a potent antifouling agent). Anti-settlement bioactivity was determined by the presence/absence of fixed byssal threads produced by each individual larvae for all the conditions tested. […] Chi-square Pearsons goodness-of-fit test was applied to data in order to determine EC50. Significance was considered at p < 0.01 for all analyses, and 95% lower and upper confidence limits [95% LCL; UCL] were presented. Therapeutic ratio (LC50/EC50) was used to evaluate the effectiveness vs. toxicity of compounds [19, 21].

[4] = test system: M. galloprovincialis plantigrade larvae; test: as above; type: in vivo; settings: 95% LCL, UCL in brackets
Experimental: as §5

CC(C)=CCCC(C)=CCC12OC(C)(C)C(Cl)CC1(Cl)C(=O)c1c(O)cc(O)cc1C2=O (stereo not shown) [Napyradiomycin 1, napyradiomycin A1]
inhibition at 0.98 µg/mL (M. luteus [1]; Micrococcus luteus, 0.98 µg/mL, read-out: % inhibition of biofilm formation M. luteus): 59 ± 7.4%
inhibition at 1.95 µg/mL (M. luteus [1]; Micrococcus luteus, 1.95 µg/mL, read-out: % inhibition of biofilm formation M. luteus): 90.3 ± 3.8%
inhibition at 3.91 µg/mL (M. luteus [1]; Micrococcus luteus, 3.91 µg/mL, read-out: % inhibition of biofilm formation M. luteus): 95.8 ± 2.9%
inhibition at 7.81 µg/mL (M. luteus [1]; Micrococcus luteus, 7.81 µg/mL, read-out: % inhibition of biofilm formation M. luteus): 96.7 ± 0.5%
inhibition at 15.6 µg/mL (M. luteus [1]; Micrococcus luteus, 15.6 µg/mL, read-out: % inhibition of biofilm formation M. luteus): 95.4 ± 0.9%
inhibition at 31.25 µg/mL (M. luteus [1]; Micrococcus luteus, 31.25 µg/mL, read-out: % Biofilm Inhibition ± SEM M. luteus): 88.6 ± 2.9%
% inhibition of biofilm formation M. luteus (M. luteus [1]; concentrations higher than 1.95 µg/mL): > 90%
% Biofilm Inhibition ± SEM M. hydrocarbonoclasticus (M. hydrocarbonoclasticus): N.I.
% growth inhibition M. luteus (M. luteus [2]; 3.91 µg/mL): 93.6 ± 1.1%
inhibition at 0.98 µg/mL (M. luteus [2]; Micrococcus luteus, 0.98 µg/mL): 42.9 ± 0.4%
inhibition at 1.95 µg/mL (M. luteus [2]; Micrococcus luteus, 1.95 µg/mL): 69.8 ± 0.5%
inhibition at 3.91 µg/mL (M. luteus [2]; Micrococcus luteus, 3.91 µg/mL): > 90%
inhibition at 7.81 µg/mL (M. luteus [2]; Micrococcus luteus, 7.81 µg/mL): 96 ± 0.3%
inhibition at 15.6 µg/mL (M. luteus [2]; Micrococcus luteus, 15.60 µg/mL): 96.5 ± 0.2%
inhibition at 31.25 µg/mL (M. luteus [2]; Micrococcus luteus, 31.25 µg/mL): 96.1 ± 0.5%
% Biofilm Inhibition ± SEM C. marina (C. marina): N.I.
LC50 at 15 h [3]: > 12 µg/mL
EC50 [Conf. limits] larval settlement [4]: 0.655 [0.300; 0.906] µg/mL
EC50 ([4]; Mytilus galloprovincialis, 15 h, read-out: EC50 [Conf. limits] larval settlement): 0.66 µg/mL (≈ 1.37 µM)
